# Reference: US20020137929A1, “1 - (3-heterocyclylphenyl) isothiourea, -isourea, -guanidine and -amidine herbicidal agents” (Intellectual Property Department, BASF Aktiengesellschaft, priority 1998, published 2002)
# What was measured:
# [1] = system: SAGPY (Arrowhead (Pygmaea)); test: Preemergence weed control under flooded paddy conditions; assay type: in vivo, Sagittaria pygmaea; settings: rated 3-4 weeks after treatment
# Protocol: (§1) Results of herbicide evaluation are expressed on a rating scale (0-9). The scale is based upon a visual observation of plant stand, vigor, malformation, size, chlorosis and overall plant appearance as compared with a control.
# (§2) Preemergence herbicidal activity under flooded paddy conditions is determined as follows: plant seeds or propagating organs are planted in the top 0.5 cm of silt loam soil in 32 oz. plastic containers with a diameter of 10.5 cm and no drainage holes. Water is added to these containers and maintained at 1.5 to 3 cm above the soil surface for the duration of the experiment. The test compounds are applied as aqueous/acetone mixtures 50/50 v/v pipetted directly into the flood water to give the equivalent of about 0.0313 to 0.500 kg/ha of active ingredient. The treated containers are placed on greenhouse benches and cared for in accordance with conventional greenhouse procedures. Three to four weeks after treatment, the test is terminated and each container is examined and herbicidal effect rated according to the rating system provided in Example 37. The compounds evaluated are reported by compound number given in Example 37.
# (§3) Plant species employed in this example are reported by header abbreviation, common name and scientific name.
# ECHCG (Barnyardgrass) = test: Postemergence herbicidal evaluation; assay type: in vivo, Echinochloa crus-galli; settings: postemergence
# Protocol: (§4) In the tests, seedling plants are grown in jiffy flats for about two weeks. The test compounds are dispersed in 50/50 acetone/water mixtures containing 0.5% TWEEN®20, a polyoxyethylene sorbitan monolaurate surfactant of Atlas Chemical Industries, in sufficient quantities to provide the equivalent of about 0.0156 kg to 0.500 kg per hectare of active compound when applied to the plants through a spray nozzle operating at 40 psi for a predetermined time. After spraying, the plants are placed on greenhouse benches and are cared for in accordance with conventional greenhouse procedures. From four to five weeks after treatment, the seedling plants are examined and rated according to the rating system set forth below. Where more than one test is involved for a given compound, the data are averaged.
# (§5) Plant species employed in these evaluations are reported by header abbreviation, common name and scientific name.
# as §1
# MOOVA (Monochoria) = test: Preemergence weed control under flooded paddy conditions; assay type: in vivo, Monochoria vaginalis; settings: rated 3-4 weeks after treatment
# Protocol: as §1, §2, §3
# ORYSAT (Rice, Tebonnet) [2] = test: Postemergence herbicidal evaluation; assay type: in vivo, Oryza sativa, (L.) Tebonnet; settings: postemergence
# Protocol: as §4, §5, §1
# ORYSAT (Rice, Tebonnet) [3] = test: Preemergence herbicidal evaluation; assay type: in vivo, Oryza sativa, (L.) Tebonnet; settings: rated 4-5 weeks after treatment
# Source text: as §1
# (§6) The preemergence herbicidal activity of the test compounds of the present invention is exemplified by the following tests in which the seeds of a variety of monocotyledonous and dicotyledonous plants are separately mixed with potting soil and planted on top of approximately one inch of soil in separate pint cups. After planting, the cups are sprayed with the selected aqueous acetone solution containing test compound in sufficient quantity to provide the equivalent of about 0.0156 to 0.500 kg per hectare of test compound per cup. The treated cups are then placed on greenhouse benches, watered and cared for in accordance with conventional greenhouse procedures. From four to five weeks after treatment, the tests are terminated and each cup is examined and rated according to the rating system provided in Example 37.
# (§7) The compounds evaluated are reported by compound number given in Example 37.
# CYPIR (Rice Flatsedge) = test: Preemergence weed control under flooded paddy conditions; assay type: in vivo, Cyperus iria; settings: rated 3-4 weeks after treatment
# Protocol: as §1, §2, §3
# [4] = system: TRZAWR (Wheat, Winter, cv Riband); test: Preemergence herbicidal evaluation; assay type: in vivo, Triticum aestivum; settings: rated 4-5 weeks after treatment
# Source text: as §1, §6, §7
# ZEAMX (Corn, Field) = test: Preemergence herbicidal evaluation; assay type: in vivo, Zea mays; settings: rated 4-5 weeks after treatment
# Source text: as §1, §6, §7
# SETVI (Foxtail, Green) = test: Preemergence herbicidal evaluation; assay type: in vivo, Setaria viridis; settings: rated 4-5 weeks after treatment
# Source text: as §1, §6, §7
# CASOB (Sicklepod) = test: Postemergence herbicidal evaluation; assay type: in vivo, Cassia obtusifolia; settings: postemergence
# Outline: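 Rate range approx. 0.0156–0.500 kg/ha. Foliar application at 40 psi to ~2-week seedlings; surfactant 0.5% TWEEN 20 in 50/50 acetone/water. Evaluation 4–5 wk post-treatment by 0–9 visual injury score, means of replicate tests.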
# [5] = system: GLXMAW (Soybean, Williams); test: Preemergence herbicidal evaluation; assay type: in vivo, Glycine max, (L.) Merr. cv Williams; settings: rated 4-5 weeks after treatment
# Source text: as §1, §6, §7
# GALAP (Galium) = test: Preemergence herbicidal evaluation; assay type: in vivo, Galium aparine; settings: rated 4-5 weeks after treatment
# Source text: as §1, §6, §7
# [6] = system: CHEAL (Lambsquarters, Common); test: Postemergence herbicidal evaluation; assay type: in vivo, Chenopodium album; settings: postemergence
# Protocol: as §4, §5, §1
smiles,measurement,setting,value
"CCOC(=O)CN1C(=O)C(Cc2ccccc2)SC1=Nc1cc(-n2c(=O)cc(C(F)(F)F)n(C)c2=O)c(F)cc1Cl (stereo not drawn) [Compound 24, Ethyl 5-benzyl-2-{{2-chloro-5-[3,6-dihydro-3-methyl-2,6-dioxo-4-(trifluoromethyl)-1(2H)-pyrimidinyl]-4-fluorophenyl}imino}-4-oxo-3-thiazolidineacetate]",Herbicidal rating SAGPY,[1]; 0.0313 kg/ha,0.0
same,Herbicidal rating SAGPY,[1]; 0.0625 kg/ha,0.0
same,Herbicidal rating SAGPY,[1]; 0.1250 kg/ha,0.0
same,Herbicidal rating SAGPY,[1]; 0.2500 kg/ha,0.0
same,ECHCG herbicidal rating,ECHCG (Barnyardgrass); rate 0.0158 kg/ha,0.0
same,ECHCG herbicidal rating,ECHCG (Barnyardgrass); rate 0.0315 kg/ha,0.0
same,ECHCG herbicidal rating,ECHCG (Barnyardgrass); rate 0.0630 kg/ha,0.0
same,Herbicidal rating MOOVA,MOOVA (Monochoria); 0.0313 kg/ha,0.0
same,Herbicidal rating MOOVA,MOOVA (Monochoria); 0.0625 kg/ha,9.0
same,Herbicidal rating MOOVA,MOOVA (Monochoria); 0.1250 kg/ha,9.0
same,Herbicidal rating MOOVA,MOOVA (Monochoria); 0.2500 kg/ha,9.0
same,ORYSAT herbicidal rating,"ORYSAT (Rice, Tebonnet) [2]; rate 0.0158 kg/ha",2.5
same,ORYSAT herbicidal rating,"ORYSAT (Rice, Tebonnet) [2]; rate 0.0315 kg/ha",3.0
same,ORYSAT herbicidal rating,"ORYSAT (Rice, Tebonnet) [2]; rate 0.0630 kg/ha",3.0
same,ORYSAT preemergence herbicidal rating,"ORYSAT (Rice, Tebonnet) [3]; rate 0.0625 kg/ha",0.0
same,ORYSAT preemergence herbicidal rating,"ORYSAT (Rice, Tebonnet) [3]; rate 0.1250 kg/ha",0.0
same,ORYSAT preemergence herbicidal rating,"ORYSAT (Rice, Tebonnet) [3]; rate 0.2500 kg/ha",0.0
same,Herbicidal rating CYPIR,CYPIR (Rice Flatsedge); 0.0313 kg/ha,0.0
same,Herbicidal rating CYPIR,CYPIR (Rice Flatsedge); 0.0625 kg/ha,0.0
same,Herbicidal rating CYPIR,CYPIR (Rice Flatsedge); 0.1250 kg/ha,0.0
same,Herbicidal rating CYPIR,CYPIR (Rice Flatsedge); 0.2500 kg/ha,0.0
same,TRZAWR preemergence herbicidal rating,[4]; rate 0.0625 kg/ha,0.0
same,TRZAWR preemergence herbicidal rating,[4]; rate 0.1250 kg/ha,0.0
same,TRZAWR preemergence herbicidal rating,[4]; rate 0.2500 kg/ha,0.0
same,ZEAMX preemergence herbicidal rating,"ZEAMX (Corn, Field); rate 0.0625 kg/ha",0.0
same,ZEAMX preemergence herbicidal rating,"ZEAMX (Corn, Field); rate 0.1250 kg/ha",0.0
same,ZEAMX preemergence herbicidal rating,"ZEAMX (Corn, Field); rate 0.2500 kg/ha",1.0
same,SETVI preemergence herbicidal rating,"SETVI (Foxtail, Green); rate 0.0625 kg/ha",0.0
same,SETVI preemergence herbicidal rating,"SETVI (Foxtail, Green); rate 0.1250 kg/ha",0.0
same,SETVI preemergence herbicidal rating,"SETVI (Foxtail, Green); rate 0.2500 kg/ha",1.0
same,CASOB herbicidal rating,CASOB (Sicklepod); rate 0.0158 kg/ha,0.0
same,CASOB herbicidal rating,CASOB (Sicklepod); rate 0.0315 kg/ha,0.0
same,CASOB herbicidal rating,CASOB (Sicklepod); rate 0.0630 kg/ha,0.0
same,GLXMAW preemergence herbicidal rating,[5]; rate 0.0625 kg/ha,0.0
same,GLXMAW preemergence herbicidal rating,[5]; rate 0.1250 kg/ha,0.0
same,GLXMAW preemergence herbicidal rating,[5]; rate 0.2500 kg/ha,0.0
same,GALAP preemergence herbicidal rating,GALAP (Galium); rate 0.0625 kg/ha,0.0
same,GALAP preemergence herbicidal rating,GALAP (Galium); rate 0.1250 kg/ha,0.0
same,GALAP preemergence herbicidal rating,GALAP (Galium); rate 0.2500 kg/ha,4.0
same,CHEAL herbicidal rating,[6]; rate 0.0158 kg/ha,2.0
same,CHEAL herbicidal rating,[6]; rate 0.0315 kg/ha,4.0
same,CHEAL herbicidal rating,[6]; rate 0.0630 kg/ha,9.0
